According to patent publication US9581594B2, “Porphyrin—modified antimicrobial peptides for application as indicators of microbial targets” (priority 2013, dated 2017):
Bridge positions count the residues as written; N and C are the ends. Ends that are not written are not given here.

Columns and labels:
[1] = type: physicochemical; details: for solubility with addition of 10% DMSO: 10% dimethylsulfoxide final concentration; for solubility in water: water / aqueous solution
Text: It is still insufficient to resolve spectrophotometric characteristics with […] as evidenced by the low absorbance intensity and indistinct bands in both absorbance and fluorescence characteristics (FIGS. 1A and 1B). […] In FIGS. 2A-2D, the more traditional Soret and Q-bands in the absorbance spectra are evident, and the expected two peak fluorescence emission spectra are observed. […] Each of the constructs has unique peak positions as well as varying extinction coefficients for the Soret and Q-bands. Fluorescence emission is also uniquely varying amongst the tracers. These factors tend to indicate the formation of unique complexes providing the potential desired for these materials.

E. coli = assay: Microtiter plate absorbance/fluorescence analysis of interaction with bacterial cells (E. coli); type: cell-based
Procedure: (§1) C1TPP and C1TPP-modified antimicrobial peptides were evaluated in a microtiter plate format using a Tecan XSafire monochromator-based microplate reader. Absorbance measurements were collected between 380 and 800 nm at 2 nm resolution. Fluorescence measurements were collected at 2 nm resolution for emission between 550 and 800 nm with excitation at 415 nm and for excitation between 385 and 619 nm with emission at 730 nm.
(§2) The microtiter plate format described above was utilized for analysis of interactions between the porphyrin-AMP constructs and bacterial cells, specifically, E. coli and B. globigii. The bacterial cells utilized were collected at mid-log phase growth and rinsed with water to remove growth media. They were then resuspended in water at approximately 3.5×10^7 cfu/mL. Analyses looked at changes in fluorescence and absorbance for fixed cell concentrations with varying tracer concentrations as well as for fixed tracer concentrations with varying cell concentrations. FIGS. 3A and 3B present data for the interaction between C1TPP and the two cell types, with absorbance (A) and fluorescence (B) spectra for C1TPP in water (black, 10% DMSO) and in the presence of E. coli (dashes) and B. globigii (dots) at 1.8×10^6 cfu/mL.

B. globigii = assay: Microtiter plate absorbance/fluorescence analysis of interaction with bacterial cells (B. globigii); type: cell-based
Procedure: as §1, §2

Row | Compound | solubility with addition of 10% DMSO [1] | solubility in water [1] | changes in fluorescence on interaction with cells (E. coli; E. coli cells) | changes in absorbance or fluorescence characteristics on interaction with cells (E. coli; E. coli cells, range of concentrations evaluated) | changes in fluorescence on interaction with cells (B. globigii; B. globigii cells) | changes in absorbance or fluorescence characteristics on interaction with cells (B. globigii; B. globigii cells, range of concentrations evaluated) | peak/trough pair in the Soret region of the absorbance difference spectrum (E. coli; in the presence of E. coli cells) | peak/trough pair in the Soret region of the absorbance difference spectrum (B. globigii; in the presence of B. globigii cells)
1 | O=C(O)c1ccc(-c2c3nc(c(-c4ccccc4)c4ccc([nH]4)c(-c4ccccc4)c4nc(c(-c5ccccc5)c5ccc2[nH]5)C=C4)C=C3)cc1 [C1TPP, 5-mono(4-carboxyphenyl)-10,15,20-triphenyl porphine] | increased somewhat | minimally soluble | overall quench | did not produce concentration dependent changes | overall quench | did not produce concentration dependent changes |  | 
2 | C1-Bac: C1TPP covalently attached to Bactenecin (RLCRIVVIRVCR; cyclized via disulfide bridge) (disulfide 3-11 (inferred); also: C1TPP covalently attached, site not given here) | sufficient to maintain the solubility | precipitated from aqueous solution | noted for only the highest concentrations of tracer used |  | noted for only the highest concentrations of tracer used |  | 476/432 | 476/432
